One data set relates to HIV strain L100I + K103N. Put plainly: microbe, parasite or virus in culture. It counts as cell-based, HIV-1. The note with it: Human immunodeficiency virus 1, 72 h, read-out: L100I + K103N pEC50 (-log EC50) (converted). The text has this:
(§1) Image analysis allowed very sensitive detection of viral infection.

The test system of data set [1] is HIV strain K103N + Y181C. In words: microbe, parasite or virus in culture. It counts as cell-based, HIV-1. Particulars: Human immunodeficiency virus 1, 72 h, read-out: K103N + Y181C pEC50 (-log EC50) (converted).
Description: (§2) The ratio of CC50 to EC50 is defined as the selectivity index (SI) and is an indication of the selectivity of the anti-HIV activity of the inhibitor. The ultimate monitoring of HIV-1 infection and cytotoxicity was done using a scanning microscope. Image analysis allowed very sensitive detection of viral infection. Measurements were done before cell necrosis, which usually takes place about five days after infection, in particular measurements were performed three days after infection.
Data set [2] has as its system HIV strain IIIB (wild type). Put plainly: microbe, parasite or virus in culture. Particulars: for EC50: Human immunodeficiency virus 1, IIIB, 72 h, read-out: IIIB pEC50 (-log EC50) (converted); for pSI (IIIB) (-log SI; SI = ratio of CC50 to EC50): strain IIIB, CC50 in mock-infected MT4 CMV-EGFP cells. As for the experimental part: Compounds of the invention were tested for their potency against wild type virus and clinically isolated HIV strains harboring one or more mutations associated with resistance to reverse transcriptase inhibitors. Antiviral activity was evaluated using a cellular assay performed according to the following procedure.
The human T-cell line MT4 was engineered with Green Fluorescent Protein (GFP) and a HIV-specific promoter, HIV-1 long terminal repeat (LTR). This cell line, designated MT4 LTR-EGFP, can be used for the in vitro evaluation of anti-HIV activity of investigational compounds. In HIV-1 infected cells, the Tat protein is produced, which upregulates the LTR promotor and eventually leads to stimulation of the GFP reporter production, allowing to measure ongoing HIV-infection fluorometrically.
Analogously, MT4 cells were engineered with GFP and the constitutional cytomegalovirus (CMV) promotor. This cell line was designated MT4 CMV-EGFP, and can be used for the in vitro evaluation of cytotoxicity of investigational compounds. […] Cytotoxic investigational compounds reduce GFP levels of mock-infected MT4 CMV-EGFP cells.
The ratio of CC50 to EC50 is defined as the selectivity index (SI) and is an indication of the selectivity of the anti-HIV activity of the inhibitor. The ultimate monitoring of HIV-1 infection and cytotoxicity was done using a scanning microscope. […] Measurements were done before cell necrosis, which usually takes place about five days after infection, in particular measurements were performed three days after infection.
The columns IIIB, L100I, etc. in the table list the pEC50 (−log EC50) values against various strains IIIB, L100I, etc.; pSI lists the −log SI values.
Strain IIIB is wild type HIV strain.

The subject of data set [3] is HIV strain MDR (L100I, K103N, Y181C, E138G, V1791, L2214F, V278V/I and A327A/V in HIV reverse transcriptase). Put plainly: microbe, parasite or virus in culture. The format is cell-based, HIV-1. The note with it: Human immunodeficiency virus 1, read-out: MDR pEC50 (-log EC50) (converted).
From the text: as §1
“MDR” refers to a strain that contains mutations L100I, K103N, Y181C, E138G, V1791, L2214F, V278V/I and A327A/V in HIV reverse transcriptase.

Data set [4] concerns HIV strain K103N + Y181C (second column with this head). Put plainly: microbe, parasite or virus in culture. It counts as cell-based, HIV-1. The note with it: Human immunodeficiency virus 1, 72 h, read-out: K103N + Y181C pEC50 (-log EC50) (converted).
Description: as §2

Structures are written as SMILES. Where only a bound is given, the exact number is not on record here.

As a reminder, the EC50 is the concentration that produces a half-maximal response. `COCc1nc(Nc2ccc(C#N)cc2)nc(Nc2c(C)cc(/C=C/C#N)cc2C)c1C(C)O` (centres unmarked) [Compound 37]: the EC50 is 2.45 nM in the data set on HIV strain L100I + K103N; 6.03 nM in the data set with HIV strain K103N + Y181C [1]; 1.45 nM in data set [2]; 105 nM in data set [3]; 11.5 nM with HIV strain K103N + Y181C [4]. The “pSI (IIIB) (-log SI; SI = ratio of CC50 to EC50)” value in data set [2] was determined as 3.95.
The term melting point denotes the temperature of the solid-liquid transition. `COCc1nc(Nc2ccc(C#N)cc2)nc(Nc2c(C)cc(/C=C/C#N)cc2C)c1-c1cccs1` [Compound 4]: the melting point is 130 °C. Also, the EC50 with HIV strain L100I + K103N is 3.8 nM. In the data set on HIV strain K103N + Y181C [1], the 50% effective concentration (EC50) was 15.5 nM. In data set [2], the EC50 is 4.57 nM and the “pSI (IIIB) (-log SI; SI = ratio of CC50 to EC50)” value is 3.73. For the same compound, the EC50 in data set [3] was 138 nM. Moreover, in the data set on HIV strain K103N + Y181C [4], the EC50 was 18.6 nM.
For `C=CC(O)c1c(COC)nc(Nc2ccc(C#N)cc2)nc1Nc1c(C)cc(/C=C/C#N)cc1C` (centres unmarked) [Compound 36], the EC50 in the data set with HIV strain L100I + K103N was 3.47 nM; in the data set with HIV strain K103N + Y181C [1] it was 8.71 nM; in data set [2] it was 2.63 nM; in data set [3], 66.1 nM; with HIV strain K103N + Y181C [4] it was 12.6 nM. Besides, in data set [2], the “pSI (IIIB) (-log SI; SI = ratio of CC50 to EC50)” value was found to be 3.85.
As to `COCc1nc(Nc2ccc(C#N)cc2)nc(Nc2c(C)cc(/C=C/C#N)cc2C)c1-c1cnccc1OC` [Compound 1], the melting point stood at 120 °C. The EC50 in the data set with HIV strain L100I + K103N was 63.1 nM. In addition, the EC50 in the data set with HIV strain K103N + Y181C [1] is 93.3 nM. Besides, in data set [2], the EC50 is 12.9 nM and the “pSI (IIIB) (-log SI; SI = ratio of CC50 to EC50)” value is listed as >3.28. In addition, in data set [3], the EC50 was 2400 nM. Moreover, the EC50 with HIV strain K103N + Y181C [4] was 83.2 nM.
Regarding `COCc1nc(Nc2ccc(C#N)cc2)nc(Nc2c(C)cc(/C=C/C#N)cc2C)c1-c1cccnc1` [Compound 2], the melting point was 216 °C. For the same compound, the 50% effective concentration (EC50) in the data set with HIV strain L100I + K103N is 4.17 nM. In addition, the EC50 in the data set on HIV strain K103N + Y181C [1] is 21.4 nM. In addition, in data set [2], the EC50 was 3.02 nM and the “pSI (IIIB) (-log SI; SI = ratio of CC50 to EC50)” value came out at 3.65. Moreover, the concentration for a half-maximal effect (EC50) in data set [3] is 240 nM. The EC50 with HIV strain K103N + Y181C [4] is 15.8 nM.
`COCc1nc(Nc2ccc(C#N)cc2)nc(Nc2ccc(/C=C/C#N)cc2)c1C#Cc1cccnc1` had a melting point of 210 °C.
As for `COCc1nc(Nc2ccc(C#N)cc2)nc(Nc2c(C)cc(/C=C/C#N)cc2C)c1-c1ccncc1` [Compound 3], the melting point came out at 172 °C. Further, the EC50 with HIV strain L100I + K103N is 9.33 nM. In addition, the EC50 in the data set with HIV strain K103N + Y181C [1] is 29.5 nM. Besides, in data set [2], the EC50 was 3.31 nM and the “pSI (IIIB) (-log SI; SI = ratio of CC50 to EC50)” value was >3.88. In addition, the EC50 in data set [3] was 355 nM. Further, the EC50 in the data set on HIV strain K103N + Y181C [4] was 22.4 nM.
The compound `COCc1nc(Nc2ccc(C#N)cc2)nc(Nc2ccc(/C=C/C#N)cc2)c1/C=C/c1ccc(C)cc1` had a melting point of 139 °C.
In the case of `COCc1nc(Nc2ccc(C#N)cc2)nc(Nc2ccc(/C=C/C#N)cc2)c1/C=C/c1ccc(OC)cc1`, the melting point turned out to be 207 °C.
In the case of `COCc1nc(Nc2ccc(C#N)cc2)nc(Nc2c(C)cc(/C=C/C#N)cc2C)c1-c1ccco1` [Compound 6], the melting point was 105 °C. Also, in the data set with HIV strain L100I + K103N, the EC50 was 3.63 nM. In addition, the EC50 with HIV strain K103N + Y181C [1] is 16.6 nM. In addition, in data set [2], the EC50 is 3.63 nM and the “pSI (IIIB) (-log SI; SI = ratio of CC50 to EC50)” value came out at 3.61. For the same compound, in data set [3], the EC50 was 89.1 nM. The EC50 in the data set with HIV strain K103N + Y181C [4] is 17.4 nM.
On to `COCc1nc(Nc2ccc(C#N)cc2)nc(Nc2c(C)cc(/C=C/C#N)cc2C)c1-c1ccoc1` [Compound 7], for which the melting point stood at 122 °C. Besides, in the data set with HIV strain L100I + K103N, the EC50 was 2.4 nM. The EC50 with HIV strain K103N + Y181C [1] is 12.3 nM. In data set [2], the EC50 is 3.72 nM and the “pSI (IIIB) (-log SI; SI = ratio of CC50 to EC50)” value is listed as 3.75. In data set [3], the EC50 is 91.2 nM. Also, the EC50 with HIV strain K103N + Y181C [4] was 12.6 nM.
As to `COCc1nc(Nc2ccc(C#N)cc2)nc(Nc2c(C)cc(/C=C/C#N)cc2C)c1-c1ccsc1` [Compound 5], the melting point worked out at 125 °C. In the data set on HIV strain L100I + K103N, the EC50 was 5.01 nM. The EC50 with HIV strain K103N + Y181C [1] was 21.4 nM. For the same compound, in data set [2], the EC50 is 4.37 nM and the “pSI (IIIB) (-log SI; SI = ratio of CC50 to EC50)” value was >3.76. The EC50 in data set [3] is 324 nM. The EC50 in the data set on HIV strain K103N + Y181C [4] was 25.1 nM.
Compound `C=C(OCC)c1c(COC)nc(Nc2ccc(C#N)cc2)nc1Nc1ccc(/C=C/C#N)cc1` yielded a melting point of 102 °C.
Take `COCc1nc(Nc2ccc(C#N)cc2)nc(Nc2c(C)cc(/C=C/C#N)cc2C)c1C(O)c1nccs1` (centres unmarked) [Compound 38]: the EC50 in the data set with HIV strain L100I + K103N is 3.72 nM; with HIV strain K103N + Y181C [1], 12.3 nM; in data set [2], 2.69 nM; in data set [3] it was 174 nM; in the data set with HIV strain K103N + Y181C [4], 12 nM. Besides, in data set [2], the “pSI (IIIB) (-log SI; SI = ratio of CC50 to EC50)” value is 3.81.
